# Data: the supplement of paper PMC10307832
# Legend:
# Experiment in all cases: relative viability (nuclei count vs DMSO), 5 days (fraction); higher = more cells survive
# BMX-IN-1 + Decitabine = compound: C=CC(=O)Nc1cc(-n2c(=O)ccc3cnc4ccc(-c5ccc(NS(C)(=O)=O)cc5)cc4c32)ccc1C [BMX-IN-1] + Nc1ncn([C@H]2C[C@H](O)[C@@H](CO)O2)c(=O)n1 [Decitabine] (partner 2 µM)
# Summary of the method: (§1)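 Relative viability is defined as nuclei in treated wells over nuclei in vehicle wells. Duplicate plates were run and medians reported. Lung cancer cell lines in 1536-well plates were dosed by pin tool one day after seeding, with one drug or with a fixed anchor-drug dose plus five library-drug doses (not always all listed) in √10 steps, and nuclei were counted after 5 days.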
# Ibrutinib + Bortezomib = compound: C=CC(=O)N1CCC[C@@H](n2nc(-c3ccc(Oc4ccccc4)cc3)c3c(N)ncnc32)C1 [Ibrutinib] + CC(C)C[C@H](NC(=O)[C@H](Cc1ccccc1)NC(=O)c1cnccn1)B(O)O [Bortezomib] (partner 0.002 µM)
# Summary of the method: as §1
# Ibrutinib + Pictilisib = compound: C=CC(=O)N1CCC[C@@H](n2nc(-c3ccc(Oc4ccccc4)cc3)c3c(N)ncnc32)C1 [Ibrutinib] + CS(=O)(=O)N1CCN(Cc2cc3nc(-c4cccc5[nH]ncc45)nc(N4CCOCC4)c3s2)CC1 [Pictilisib] (partner 1 µM)
# Summary of the method: as §1
# PAC-1 + Pictilisib = compound: C=CCc1cccc(/C=N/NC(=O)CN2CCN(Cc3ccccc3)CC2)c1O [PAC-1] + CS(=O)(=O)N1CCN(Cc2cc3nc(-c4cccc5[nH]ncc45)nc(N4CCOCC4)c3s2)CC1 [Pictilisib] (partner 1 µM)
# Summary of the method: as §1
Cell Line,relative viability (BMX-IN-1 + Decitabine; first compound 0.02 µM),relative viability (BMX-IN-1 + Decitabine; first compound 0.2 µM),relative viability (BMX-IN-1 + Decitabine; first compound 0.6325 µM),relative viability (BMX-IN-1 + Decitabine; first compound 2 µM),relative viability (Ibrutinib + Bortezomib; first compound 0.01581 µM),relative viability (Ibrutinib + Bortezomib; first compound 0.05 µM),relative viability (Ibrutinib + Bortezomib; first compound 0.1581 µM),relative viability (Ibrutinib + Bortezomib; first compound 0.5 µM),relative viability (Ibrutinib + Pictilisib; first compound 0.01581 µM),relative viability (Ibrutinib + Pictilisib; first compound 0.05 µM),relative viability (Ibrutinib + Pictilisib; first compound 0.1581 µM),relative viability (Ibrutinib + Pictilisib; first compound 0.5 µM),relative viability (PAC-1 + Pictilisib; first compound 0.02 µM),relative viability (PAC-1 + Pictilisib; first compound 0.06325 µM),relative viability (PAC-1 + Pictilisib; first compound 0.2 µM),relative viability (PAC-1 + Pictilisib; first compound 2 µM),relative viability (Ibrutinib + Bortezomib; first compound 0.005 µM),relative viability (Ibrutinib + Pictilisib; first compound 0.005 µM)
NCI-H2126,0.522,0.515,0.59,0.601,1.13,1.12,1.11,1.1,0.469,0.454,0.399,0.43,0.43,0.478,0.495,0.49,–,–
NCI-H1993,0.678,0.525,0.53,0.631,0.882,0.789,–,0.681,0.7,0.139,–,0.871,0.696,0.881,0.844,0.823,0.728,0.777
EPLC-272H,0.29,0.397,0.407,0.355,0.881,0.924,0.839,0.753,0.291,0.299,0.194,0.267,–,0.349,0.32,0.268,–,–
LU99A,0.922,0.855,1.13,0.882,0.97,1.28,1.21,1.2,0.34,0.355,0.324,0.336,0.32,0.271,0.313,0.322,1.01,0.274
HCC-78,0.743,0.766,0.789,0.802,0.453,0.58,0.496,0.488,0.202,0.177,0.159,0.172,0.179,0.196,0.236,0.195,0.513,0.199
HCC-15,0.721,0.651,0.652,0.713,–,–,–,1.1,0.678,0.731,0.361,0.711,0.683,0.731,0.743,0.783,1.13,0.646
201T,0.819,0.847,0.864,0.918,1.06,1.13,1.09,1.09,0.704,0.66,0.616,0.598,0.561,0.702,0.75,0.672,1.05,0.581
LCLC-103H,0.795,0.782,0.714,0.689,1.01,1.07,0.986,1.05,0.535,0.557,0.517,0.653,0.549,0.612,0.592,0.638,0.999,0.72
RERF-LC-KJ,0.788,0.692,0.851,0.758,0.977,1.03,1,0.851,0.518,0.46,0.548,0.441,0.553,0.471,0.423,0.552,0.96,0.482
NCI-H1650,0.438,0.385,0.473,0.548,0.216,0.23,0.203,0.22,0.52,0.506,0.515,0.476,0.53,0.608,0.582,0.515,0.22,0.493
NCI-H1355,0.357,0.368,0.355,0.401,1.14,1.18,1.2,1.16,0.474,0.481,0.26,0.343,0.386,0.475,0.393,0.492,–,–
NCI-H2085,0.553,0.595,0.564,0.597,0.954,0.983,0.963,0.963,0.473,0.48,0.369,0.417,0.446,0.518,0.422,0.485,–,0.432
NCI-H650,0.321,0.303,0.318,0.346,0.706,–,1.12,0.932,0.883,–,0.973,0.678,1.07,0.951,0.86,0.874,–,–
NCI-H460,0.568,0.657,0.478,0.428,1.02,1.19,1.19,1.27,0.365,0.313,0.19,0.256,0.281,0.405,0.355,0.39,1.27,0.331
NCI-H1666,0.673,0.746,0.839,0.716,0.79,0.802,0.695,0.977,0.358,0.31,0.409,0.235,0.501,0.398,0.358,0.427,0.768,0.388
NCI-H2009,0.381,0.402,0.41,0.368,1,0.988,0.864,1.05,0.846,0.742,0.468,0.759,0.832,0.866,0.792,0.789,1.09,0.593
COR-L 105,0.563,0.671,0.654,0.672,0.607,0.512,0.683,0.348,0.418,0.488,0.341,0.325,0.397,0.397,0.167,0.411,0.514,0.316
LXF-289,0.388,0.338,0.374,0.41,0.985,0.966,0.959,0.914,0.724,0.802,0.794,0.758,0.846,0.727,0.739,0.792,1.09,0.733
